Test results reported in PMC10803328 (Scientific Reports, 2024).
Where “and” joins values, the source holds several entries; their conditions need not be identical. Equal entries are not always repeated.

Assays:
[1] = Lipophilicity measurement (logD7.4) by partition; type: physicochemical; settings: n = 6
Procedure: Aliquots were distributed to 16 borosilicate disposable culture tubes (13 × 100 mm). The tubes were divided into two groups of […]. […] Extraction was performed by vortexing the tubes with their content for 1 min. The tubes were then centrifuged for 1 min. The organic and the aqueous phases were separated, and each phase was then sampled (50 µL) and counted separately in a well-type γ-counter (model 1480 Wizard; Perkin-Elmer) with an electronic window set between 360 and 1800 keV. The remaining two tubes, containing the radioactivity in buffer, served as stability measures for the radioligand. […] The aqueous phases were injected onto the HPLC. The resulting radiochromatograms provided correction factors for the γ-counter counts, of the aqueous samples, to determine parent radioligand radioactivity only (corrected radioactivity)[32]. LogD7.4octanol and logD7.4cyclohexane were each calculated as log((cpm in organic phase)/(corrected cpm in aqueous phase)).

[2] = PET imaging of brain in wild-type rats; type: in vivo, rat; settings: i.v.
Procedure: All PET imaging studies were performed with a Mediso LFER 150 preclinical scanner (nanoScan PET/CT). Brain and brain region radioactivity uptake was expressed by standardized uptake value (SUV) which normalizes for injected radioactivity and monkey body weight, as follows: SUV = [(% injected dose per g tissue) × body weight in g]/100.
Animals were maintained under anesthesia with 1.5% isoflurane throughout the scan. Radioligand was injected intravenously via a penile vein catheter followed by PET imaging for 90 min. Brain uptake was expressed as standardized uptake value (SUV, concentration normalized by injected activity and body weight) and compared between the wild-type and self-blocked conditions.

## [11CH3]n1c(=O)cnc2cc3c(cc21)C1CNCC3C1 (stereo not drawn) [[^11C]uPSEM792]
[1]
  ΔLogD7.4 (logD7.4(octanol) − logD7.4(cyclohexane)): 2.45 ± 0.03
[2]
  peak whole brain radioactivity uptake: ~ 0.6 SUV and < 0.6 SUV
  time of peak whole brain radioactivity: 5 min
